The values below are quoted from earlier work in patent US7674824B2, “Stable oxaliplatin formulation” (Fresenius Kabi Oncology Limited, priority 2006, dated 2010).

Structures are written as SMILES.

For the data set the following is noted: 0.9% sodium chloride solution.

As to `O=C1[O][Pt]2([NH][C@@H]3CCCC[C@H]3[NH]2)[O]C1=O` [oxaliplatin], the “Stability after reconstitution in chloride-containing solution (in words)” value was “rapidly decomposing”.
